Assay results taken from ChEMBL document CHEMBL1201862, “PubChem BioAssay data set” (2004).
Activity calls are given as the source filed them.

Legend:
[1] = viability loss in HepG2 hepatoma cells – cell-based, cherry-picks, set 5, cytotoxicity control, dose response (AID 1053118); type: functional
Major prion protein = Major prion protein (Homo sapiens, UniProt P04156); type: functional, cell-based
cells [2] = test: cells
[3] = target: Mitogen-activated protein kinase 10 (Homo sapiens, UniProt P53779); test: Dose response biochemical screening assay for inhibitors of c-Jun N-Terminal Kinase 3 (JNK3). [Related pubchem assays: 746 ]
[4] = growth inhibition of yeast DHODH-expressing 3D7 parasites – SYBR Green, dry powder samples, dose response (AID 1159570); type: functional, cell-based;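 also: parasite growth measured after 72 hours of compound exposure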
[5] = P. falciparum Dd2 growth inhibitors, dose response, SYBR Green, cherry-picked samples (AID 1159567); type: functional, cell-based
[6] = toxicity to human hepatoma HepG2 cells – cell-based, cherry-picked samples, cytotoxicity control, dose response (AID 1159577); type: functional
[7] = Dd2 malaria parasite growth inhibition potency – SYBR Green, dry powder samples, dose response (AID 1159566); type: functional, cell-based;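 also: potency for growth inhibition with lower SYBR green DNA signal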
[8] = toxicity to human HepG2 hepatoma cells – cell-based, plate reader, dry powder samples, cytotoxicity control, dose response (AID 1159569); type: functional;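 also: inhibitor potency with signal falling toward the positive control level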
[9] = growth inhibition of PfATP4-mutant resistant parasites – NITD609-resistant line, SYBR Green, dry powder, dose response (AID 1159571); type: functional, cell-based;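 also: parasites synchronized at ring stage by sorbitol before testing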
[10] = target: T1, Zinc finger protein mex-5 (Caenorhabditis elegans, UniProt Q9XUB2); test: potency of MEX-5 RNA-binding blockers – biochemical, C. elegans, fluorescence polarization, dose response (AID 1960)
T1 sequence (Q9XUB2 whole entry): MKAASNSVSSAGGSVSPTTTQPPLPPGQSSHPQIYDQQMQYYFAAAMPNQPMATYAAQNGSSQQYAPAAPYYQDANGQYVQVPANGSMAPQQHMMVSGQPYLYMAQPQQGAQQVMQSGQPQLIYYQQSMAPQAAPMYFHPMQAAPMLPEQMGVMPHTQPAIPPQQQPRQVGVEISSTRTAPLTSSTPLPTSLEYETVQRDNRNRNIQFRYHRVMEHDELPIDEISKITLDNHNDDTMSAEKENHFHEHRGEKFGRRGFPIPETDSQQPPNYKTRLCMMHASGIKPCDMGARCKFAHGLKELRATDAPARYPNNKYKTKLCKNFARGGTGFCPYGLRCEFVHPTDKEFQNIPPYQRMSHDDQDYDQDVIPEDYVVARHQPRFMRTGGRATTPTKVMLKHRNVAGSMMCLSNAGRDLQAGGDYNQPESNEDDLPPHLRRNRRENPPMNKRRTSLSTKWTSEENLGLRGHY

[11] = target: T2, Voltage-gated N-type calcium channel alpha-1B subunit/Amyloid beta A4 precursor protein-binding family A member 1 (Homo sapiens, UniProt Q00975+Q02410); type: protein assay
[12] = target: T2, Voltage-gated N-type calcium channel alpha-1B subunit/Amyloid beta A4 precursor protein-binding family A member 1; type: protein assay; remark: listed apart in the source
Albumin = Albumin (Bos taurus, UniProt P02769); test: Counterscreen for inhibitors of T-cell receptor (TCR)-CD3 interaction: Fluorescence-based biochemical high throughput dose response assay to identify inhibitors of T-cell receptor (TCR)-CD3 interaction using a TAMRA-labeled BSA probe.; type: functional
[13] = OVCAR-3 cell viability loss – plate reader, dry powder samples, PAX8 inhibitor project, dose response (AID 743044); type: functional, cell-based
[14] = IGROV1 cell killing – plate reader, dry powder samples, PAX8 inhibitor project, dose response (AID 743043); type: functional, cell-based; details: IGROV-1
[15] = toxicity toward immortalized ovarian surface epithelium – cell-based, plate reader, dry powder samples, cytotoxicity control for PAX8 inhibitor project, dose response (AID 743045); type: functional
[16] = OVCAR8 cell viability loss – plate reader, dry powder samples, PAX8 project, dose response (AID 743197); type: functional, cell-based; details: OVCAR-8
Paired box protein Pax-8 = Paired box protein Pax-8 (Homo sapiens, UniProt Q06710); test: PAX8 transcriptional activity inhibition in RMG-I – RMG-I cells, luciferase, cherry-pick, dose response (AID 687027); type: functional, cell-based;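 also: luciferase reporter driven by Pax8 target thyroperoxidase promoter measured by SteadyGlo luminescence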
[17] = general cell-killing toxicity readout – plate reader, dry powder samples, cytotoxicity control for PAX8 inhibitor project, dose response (AID 743021); type: functional, cell-based
[18] = Dd2 parasite growth inhibition in erythrocytes – SYBR Green, dry powder samples, set 9, dose response (AID 1159568); type: functional, cell-based
Estrogen receptor = target: T3, Estrogen receptor (Homo sapiens, UniProt P03372);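 also: potency for inhibiting coactivator peptide recruitment to the receptor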
T3 sequence (P03372 whole entry): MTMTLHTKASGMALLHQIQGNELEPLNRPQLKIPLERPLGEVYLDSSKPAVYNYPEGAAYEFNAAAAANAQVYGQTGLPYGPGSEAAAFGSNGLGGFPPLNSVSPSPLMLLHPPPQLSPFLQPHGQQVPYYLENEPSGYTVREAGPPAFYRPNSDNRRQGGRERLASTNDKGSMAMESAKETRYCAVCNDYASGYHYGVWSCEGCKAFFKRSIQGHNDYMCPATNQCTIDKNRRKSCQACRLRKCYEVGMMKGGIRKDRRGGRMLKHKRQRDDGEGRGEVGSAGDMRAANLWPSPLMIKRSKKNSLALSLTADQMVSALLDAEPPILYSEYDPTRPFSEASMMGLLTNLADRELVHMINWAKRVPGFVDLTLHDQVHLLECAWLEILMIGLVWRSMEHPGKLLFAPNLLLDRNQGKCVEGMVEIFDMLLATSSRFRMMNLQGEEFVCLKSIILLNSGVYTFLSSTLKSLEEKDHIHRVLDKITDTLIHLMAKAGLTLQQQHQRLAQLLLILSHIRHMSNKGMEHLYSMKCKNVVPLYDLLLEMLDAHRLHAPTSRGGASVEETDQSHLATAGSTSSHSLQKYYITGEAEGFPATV

Estrogen receptor beta [19] = target: T4, Estrogen receptor beta (Homo sapiens, UniProt Q92731); test: blockers of SRC-3 recruitment to ERβ – biochemical, ELISA, streptavidin-HRP readout, orthogonal assay, confirmation (AID 1060)
Estrogen receptor beta [20] = target: T4, Estrogen receptor beta
cells [21] = test: cells; remark: listed apart in the source
Kallikrein-7 = Kallikrein-7 (Homo sapiens, UniProt P49862); test: Fluorescence Intensity-based biochemical primary high throughput dose response assay to identify activators of kallikrein-7 (K7) zymogen.
[22] = Trypanosoma cruzi growth suppression in host cells – NIH3T3 host cells, beta-gal luminescence, confirmation (AID 2044); type: functional, cell-based;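 also: intracellular parasites grown in NIH/3T3 mouse fibroblasts as host cells; luminescent beta-galactosidase reporter signal from transgenic T. cruzi replicating inside host cells; inhibitors lower the luminescence signal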
[23] = viability inhibitors of stage V gametocytes – luminescence, dose response (AID 1117278); type: functional, cell-based;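 also: gametocytes exposed to compound for 24 hours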
[24] = viability loss in human Jurkat cells – cell-based, luminescence, cytotoxicity control for P. falciparum gametocyte viability project, dose response (AID 1117277); type: functional;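 also: potency reflects loss of cellular ATP meaning fewer viable cells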
[25] = NIH3T3 cell viability loss – ATP luminescence, mouse fibroblasts, counter-screen, dose response (AID 2010); type: functional, cell-based;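 also: cells exposed to compound for about 90 hours before reading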
cells [26] = test: cells; remark: listed apart in the source
INS1 = test: INS-1E survival protection against cytokine death – cell-based, luminescence, retest, dose response (AID 449756); type: functional; details: Rattus norvegicus;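 also: cell death triggered by IL-1 beta plus TNF-alpha plus IFN-gamma mixture; protective hits raise ATP signal compared with cytokine alone wells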

C[C@H]1CN([C@@H](C)CO)C(=O)c2cc(NC(=O)CCCN(C)C)ccc2O[C@H]1CN(C)Cc1ccc(-c2ccccc2)cc1
AC50 [1]: 44.9 µM (active)

CCOC(=O)CSc1nc(-c2ccccc2)nc2ccc(F)cc12
IC50 (Major prion protein): 1.97 µM (active) | IC50 (cells [2]): > 138 µM (inactive)

COC(=O)c1c(-c2cccs2)csc1NC(=O)CN1CCOCC1
IC50 [3]: 55.7 µM (not active)

OC[C@@H]1Nc2ccc(C#Cc3ccc(F)cc3)cc2[C@H]2NCC[C@@H]12
AC50 [4]: 1.15 µM (active) | AC50 [5]: 2.36 µM (active) | AC50 [6]: 25.1 µM (active) | AC50 [7]: 0.822 µM (active) | AC50 [8]: 32.6 µM (active) | AC50 [9]: 1.42 µM (active)

COc1ccc(C(=O)Nc2nnc(CC(=O)N/N=C/c3ccc(O)cc3O)s2)cc1
EC50 [10]: > 300 µM (not active) | IC50 [11]: 2.33 µM (active) | IC50 [12]: 19.8 µM (active) | IC50 (Albumin): > 94.1 µM (inactive)

COc1cccc(S(=O)(=O)N2C[C@@H]3N[C@H](C2)[C@@H]3c2ccc(/C=C/c3ccccc3)cc2)c1
AC50 [13]: 40.8 µM (active) | AC50 [14]: 58 µM (active) | AC50 [15]: 36.1 µM (active) | AC50 [16]: 48.9 µM (active) | AC50 (Paired box protein Pax-8): 9.43 µM (active) | AC50 [17]: 33.7 µM (active)

Cc1cc(C)c2nc(SC3CCOC3=O)cc(C)c2c1 (stereo not given)
IC50 (Major prion protein): 3.66 µM (active) | IC50 (cells [2]): > 138 µM (inactive)

COc1ccc2c3c(n(C)c2c1)[C@H](CO)N(Cc1ccc2c(c1)OCO2)CC31CN(C(=O)c2ccc3c(c2)OCO3)C1
AC50 [4]: 0.141 µM (active) | AC50 [18]: 0.236 µM (active) | AC50 [5]: 0.54 µM (active) | AC50 [7]: 0.13 µM (active) | AC50 [8]: > 100 µM (inactive) | AC50 [9]: 0.147 µM (active)

O=C1NC(=O)c2c(NC(=O)C3CCCO3)cccc21 (stereo not given)
IC50 [3]: 56.2 µM (not active)

Cc1occc1-c1nnc(SCc2cc(=O)n3cc(Br)ccc3n2)n1C
IC50 (Estrogen receptor): > 50 µM (not active) | IC50 (Estrogen receptor beta [19]): 0.468 µM (not active) | IC50 (Estrogen receptor beta [20]): > 50 µM (not active)

CCOC(=O)c1cc2c(=O)n3ccccc3nc2n(CCCOC)/c1=N\C(=O)c1ccncc1
AC50 (cells [21]): 8.47 µM (active)

C=C(C)Cn1c2ccc(NC(=O)NCCc3cccs3)cc2c(=O)n1C
EC50 (Kallikrein-7): > 7.72 µM (active)

CCCOC(=O)c1ccc(-[n+]2c(-c3ccccc3)cc(-c3ccccc3)cc2-c2ccccc2)cc1.[O-][Cl+3]([O-])([O-])[O-]
EC50 [22]: < 0.1 µM (active) | IC50 [23]: > 109 µM (inactive) | IC50 [24]: 6.87 µM (active) | EC50 [25]: > 60 µM (not active) | EC50 (cells [26]): 0.1 µM (active) | AC50 (INS1): 1.82 µM (active)
